pIC50: −log10 of the molar value. Where “and” joins values, the source holds several entries; their conditions need not be identical. Equal values may be shown once. Entries after “also recorded” stand apart in the source; their conditions may differ. Read-outs that look alike come from different tables or passages of the source.
Experiments:
zebrafish embryos = assay: Zebrafish embryo treatment, tail curvature phenotype; format: in vivo; details: 50 μM; for embryo morphology, tail curvature: 24 hpf to 48 hpf, 28°C; for embryo morphology, tail curvature at 4 dpf: kept for four days
Description: Measurements of in vitro γ-secretase activity and cell-based Aβ/NICD generation have shown different inhibition potencies. To examine the inhibitory effect in vivo, zebrafish embryos were treated with DAPT or cpd E. Because different γ-secretase inhibitors may impact various metabolic pathways in zebrafish embryos, especially during development, the phenotypes of zebrafish embryos treated with high concentrations of DAPT and cpd E were compared. The major phenotype we examined was curved tail caused by defective somitogenesis.
Figure 4 Treatment of zebrafish embryos with DAPT causes curved tails. A. A stock of DAPT or cpd E in DMSO was diluted in embryo medium, and increasing concentrations of DAPT or cpd E were applied to de-chorionated zebrafish embryos incubated at 28°C from 24 hpf to 48 hpf. Control embryos were mock-treated with embryo medium containing the same concentration of DMSO. […] B. DAPT- or cpd E-treated embryos were kept until 4 dpf, and images were acquired at 40 × magnification.
Zebrafish embryos were raised and staged according to Kimmel, et al.. Compounds were dissolved in egg water at various final concentrations, and 0.5% DMSO was used as a negative control. Prior to the treatment at 24 hour post fertilization, embryos were de-chorionated manually. Embryos were placed in a 24-well plate (5–6 embryos/well) and treated with the compound containing egg water. Embryos were incubated at 28°C, and photographic images were taken at 2 days and 4 days post fertilization (dpf).
Compound-treated embryos were observed under an OLYMPUS SZX12 microscope. For examination, embryos were removed from the compound containing medium and placed into 0.4% tricane (3-amino benzoic acidethylester, Sigma, St. Louis, MO) solution. Upon anesthetizing, embryos were placed in 3% methylcellulose for positioning and images were recorded with OLYMPUS Q-COLOR3 camera. Images were taken at the 40× magnification for embryos at 2 and 4 dpf.

[1] = target: T1, γ-secretase cleavage of APP (Homo sapiens, UniProt P49768); assay: Aβ in conditioned media of APP expressing HEK293 cells transfected with NotchΔE, ELISA; format: cell-based; details: for pIC50: HEK293, 8 hr treatment; for Aβ levels in cultured cells: high doses
T1 construct: endogenous in cells; host or cells: HEK293 stably expressing Swedish mutant human APP695, transiently transfected with NotchΔE
Description: Since many compounds could behave differently in vitro versus in culture cells, cpd E and DAPT were tested in cultured cells (Fig. 2). HEK293 cells stably expressing Swedish mutant APP were transiently transfected with NotchΔE, a truncated Notch construct that is readily cleaved by the γ-secretase to generate NICD for downstream signaling transduction. NotchΔE expressing cells were treated with increasing concentrations of DAPT or cpd E. Cell lysates were subjected to WB for measuring the generation of NICD (Fig. 2A), and conditioned media were collected for Aβ measurement by ELISA (Fig. 2B,C).
Figure 2 Generation of NICD and Aβ from NotchΔE and APP expressing cells. A. Twenty four hrs after the construct carrying NotchΔE was transfected into APP expressing HEK293 cells, cells were treated with DAPT or cpd E for 8 hr and lysed for WB with antibody 1744 to specifically detect the N-terminus of NICD. Bottom panel, the antibody against α-tubulin was applied to normalize the amounts of lysates used for WB. B. Levels of NICD determined by WB were quantified by densitometry (dotted line). Levels of Aβ generated from the γ-secretase cleavage of APP in the presence of DAPT were determined by ELISA. […] C. NICD (dotted line) and Aβ (solid line) production from cpd E-treated cells were compared. […] D. A luciferase reporter construct driven by HES1 promoter was transfected into HEK293 cells followed by treatment with cpd E or DAPT.
Sandwich ELISAs for Aβ were performed as described. The capture antibodies, 2G3 (to Aβ residues 33–40) and 4G8 (to Aβ residues 17–24), were used for Aβ40 and Aβ total species, respectively. The detecting antibodies were biotinylated 82E1 (to Aβ residues 1–16) for Aβ1–40/total or biotinylated 266 for Aβx-40 species. The use of mid-region and C-terminal capturing antibodies and N-terminal detecting antibody for chimeric "Notch-Aβ-like" peptide (Nβ*) has been documented. The combination of several capture/detecting antibodies are use to measure Aβ and Nβ* derived from different precursors. The capture antibody 2G3 and detecting antibody 82E1 were used for measuring Nβ* from APP-α-Notch expressing cells. Since the APP-α-NOTCH is the fusion protein with its juxtamembrane portion of the APP ectodomain (the α-secretase cleavage region) replaced by the corresponding sequence in Notch, the epitopes in APP sequence could still be recognized by 2G3 (C-terminus) and 82E1 (N-terminus). […]
Human embryonic kidney (HEK) 293 cells stably expressing Swedish mutant human APP695 were transfected with different cDNA constructs and maintained in 200 μg/ml G418 (Invitrogen, Carlsbad, CA). […] Conditioned media were collected for ELISA, and cell lysates were analyzed by Western blot as described. […]

Notch target gene her6 = assay: Whole mount in situ hybridization of Notch target gene her6 in treated zebrafish embryos; format: in vivo
Source text: To examine the effect of DAPT and cpd E on Notch signaling, embryos treated with different concentrations of DAPT or cpd E were stained by whole mount in situ hybridization using a her6 probe (Fig 5). The expression level of Notch downstream target gene her6 correlates to the levels of Notch signaling, i.e., a loss of her6 staining corresponds to an inhibition of γ-secretase mediated Notch signaling. We have focused on the specific effect of γ-secretase inhibitors on Notch signaling in brain region.
Figure 5 Expression levels of Notch target gene her6 are consistent with the curvature phenotype. Increasing concentrations of DAPT or cpd E were applied to de-chorionated zebrafish embryos from 24 hpf until 48 hpf, and in situ hybridization of compound-treated embryos was carried out at 48 hpf using the her6 probe. At least 10 to 20 embryos were examined for each experiment. Images were taken at the 64× magnification for stained embryos.
In situ hybridization of compound-treated embryos was carried out at 2 dpf according to standard protocols using the her6 probe. Single-stranded RNA probes against her6 were synthesized from a cDNA clone (provided by Dr. P Raymond, University of Michigan, Ann Arbor, MI) using T7 RNA polymerase after linearization by restriction digest. The probe was then labeled with digoxigenin-UTP (Roche, Basel, Switzerland). At least 10 to 20 embryos were examined for each experiment. Images were taken at 64× magnification for stained embryos.

`C[C@H](NC(=O)Cc1cc(F)cc(F)c1)C(=O)N[C@H]1N=C(c2ccccc2)c2ccccc2N(C)C1=O` [cpd E, (S,S)-2-[2-(3,5-Difluorophenyl)-acetylamino]-N-(1-methyl-2-oxo-5-phenyl-2,3-dihydro-1H-benzo [e] [1,4]diazepin-3-yl)-propionamide] was tested, and the “embryo morphology, tail curvature” value (zebrafish embryos) was “lack of dramatic phenotypic alteration”, the “embryo morphology, tail curvature” value (zebrafish embryos; listed as Cpd E) was “did not show any curvature” and the “embryo morphology, tail curvature at 4 dpf” value (zebrafish embryos) was “minor effect on embryo morphology”. For the same compound, the pIC50 ([1]; IC50 for Aβ generation (levels of Aβ reduced to 50%) in cultured cells) was ~8.10 and 8.30, the “Aβ levels in cultured cells” value [1] was “efficiently reduced to almost undetectable levels” and the her6 expression (Notch target gene her6; 50 μM, 24 hpf until 48 hpf) was “slightly reduced expression level of her6 gene”. For the same compound, the her6 expression (Notch target gene her6; highest testing doses) was “reduction of her6 staining”.
`C[C@H](NC(=O)Cc1cc(F)cc(F)c1)C(=O)N[C@H](C(=O)OC(C)(C)C)c1ccccc1` [DAPT, N-[N-(3,5-Difluorophenacetyl-L-alanyl)]-S-phenylglycine t-Butyl Ester] was tested, and the “embryo morphology, tail curvature” value (zebrafish embryos) was “much shorter and curved tail; also recorded: caused curved trunk and tails; also recorded: curvature of zebrafish tail was found”, the “embryo morphology, tail curvature at 4 dpf” value (zebrafish embryos) was “continued to show the curvature of the tails” and the pIC50 ([1]; read-out: concentration inhibiting levels of Aβ to 50% in cultured cells) was ~6.30. For the same compound, the “Aβ levels in cultured cells” value [1] was “efficiently reduced to almost undetectable levels”, the her6 expression (Notch target gene her6; 0.5 μM, 24 hpf until 48 hpf) was “very similar staining pattern to the control embryos” and the her6 expression (Notch target gene her6; 5 μM, 24 hpf until 48 hpf) was “staining of her6 started to appear”. For the same compound, the her6 expression (Notch target gene her6; 50 μM, 24 hpf until 48 hpf) was “significantly reduced or disappeared in most areas”.

Reference: publication PMC2637266, “Quantification of gamma-secretase modulation differentiates inhibitor compound selectivity between two substrates Notch and amyloid precursor protein” (Molecular Brain, 2008)
